# In US6569872B1, “Use of neurokinin receptor antagonists to treat androgen-dependent diseases” (Schering Corporation, priority 2001, dated 2003):
# How the values were obtained:
# serum testosterone = assay: Reduction of LHRH-stimulated serum testosterone in mice; type: in vivo, male nude mice
# Method: The effects of Compounds A, B, C, D, E and F on serum testosterone were tested in mice given intramuscular (i.m.) luteinizing hormone releasing hormone (LHRH) to drive testicular androgen biosynthesis.
# Male nude mice (8 weeks old, 5 mice/group) were dosed orally with 0, 5, 15, 45, 90, 150 or 300 mg/kg of Compound A in 20% hydroxypropyl β-cyclodextran (HPβCD). After 1 hour, animals were given an i.m. injection of LHRH (250 ng/kg in 50 μl Sterile Water) into the biceps femoris muscle to drive testosterone production. After an additional hour, the animals were anesthetized with ketamine/xylazine, bled by cardiac puncture, and serum testosterone levels were determined by radioimmunoassay.
# The effects of 90 mg/kg of Compounds A, B, C, D, E and F on LHRH-stimulated serum testosterone levels were compared in male nude mice.
# [1] = tested on: serum LH, T, androstenedione, and DHEA; assay: Reversibility of the effects on hormones, 7 days dosing and 14-day postdose period; type: in vivo, dogs
# Method: The following investigative study was conducted to determine whether the changes observed after 1 week of Compound A administration were reversible after a 14-day postdose period. The first day of dosing was Day 1.
# There were eight dogs in Group 1, who received placebo (sterile water) and twelve dogs in Group 2, who received Compound A. Dogs were scheduled to be dosed for 7 days; however, one dog died shortly after receiving the sixth dose of compound A. All eight dogs in Group 1 had hormonal evaluations on Day 7; 4 of these dogs were necropsied on Day 8. The remaining four dogs in Group 1 had hormonal evaluations on Day 21 (14 days postdose), and were necropsied on Day 22. In Group 2, eleven dogs had hormonal evaluations on Day 7, and five were necropsied on Day 8. The remaining six dogs in Group 2 had hormonal evaluations on Day 21 (14 days postdose) and were necropsied on Day 22.
# There were typically one to three spikes of LH and T within the sampling period. In many dogs the LH spikes preceded the T spikes by 30 to 60 minutes. Androstenedione and DHEA concentrations tended to rise and fall with those of T, although in some dogs there were many values below the limit of quantitation.
# In dogs receiving Compound A at Day 7, serum LH, T, androstenedione, and DHEA concentrations were often very low. Group mean values for LH, T, androstenedione, and DHEA were 14.7, 1.5, 0.37, and 0.88 ng/ml for dogs receiving sterile water, while dogs receiving Compound A had group mean values of 2.4, 0.05, 0.01 and 0.03 ng/ml, respectively. […] It should also be noted that on Day 7 almost all T, androstenedione, and DHEA samples were below the limit of detection despite using sensitive assays.
# [2] = tested on: Shionogi mouse mammary carcinoma tumors; assay: Androgen-dependent tumor growth, Shionogi carcinoma in nude mice; type: in vivo; conditions: end of 15 days, relative to vehicle control
# Method: (§1) Following the observation of reduction of serum testosterone in mice, the effects of Compound A on androgen-dependent tumor growth were tested. […] Shionogi mouse mammary carcinoma tumors were grown in nude mice as an androgen-dependent model, and DU-145 human prostate carcinoma tumors were grown in nude mice as an androgen-independent model.
# In the Shionogi experiment, male nu/nu mice (8-9 weeks old, 10 mice/group) were inoculated with Shionogi carcinoma cells and tumors were grown to approximately 150 mm^3 before initiation of Compound A administration. Mice were treated twice daily, i.p. with 20% HPβCD vehicle control, 5 mg/kg Compound A or 15 mg/kg Compound A. Tumor growth was inhibited over 15 days of Compound A treatment relative to vehicle control animals. At the end of 15 days, mean tumor volumes were inhibited by 41% and 69% in the 5 mg/kg and 15 mg/kg groups, respectively.
# [3] = type: in vivo
# Method: Compound A was administered as an aqueous solution in sterile water by daily oral gavage to adult healthy beagle dogs.
# The dogs received 28 consecutive daily doses at dose levels of 0, 15, 30 or 60 mg/kg. […] Organ weights of male and female reproductive tract tissues were 33-86% lower than that of concurrent controls, and occurred in all dose groups. […] In the epididymides, vacuolation (mild) of epithelium was also present in the mid- and high-dose males. […] This was characterized in the ovaries by a lack of antral follicles, and most follicles that were present were small and contained only small numbers of granulosa cells. Compared to control dogs, the uterine bodies and horns had less myometrial tissue present. Uterine epithelium from dogs receiving Compound A with immature uteri had very little cytoplasm present. The changes in the female reproductive system may be related to atrophy rather than immaturity.
# [4] = tested on: DU-145 human prostate carcinoma tumors; assay: Androgen-independent tumor growth, DU-145 in nude mice; type: in vivo; conditions: 15, 45 or 90 mg/kg twice daily i.p., over 30 days
# Method: as §1
# In the DU-145 experiment, male nu/nu mice (9-10 weeks old, 10 mice/group) were inoculated with DU-145 prostate carcinoma cells and tumors were grown to approximately 65 mm^3 before initiation of Compound A administration. Mice were treated twice daily, i.p. with 20% HPβCD vehicle control, 15 mg/kg, 45 mg/kg or 90 mg/kg of Compound A. As expected, tumor growth was not inhibited over 30 days in any of the Compound A groups.
# [5] = tested on: serum LH, T, DHEA, and androstenedione; assay: Lower-dose 7-day study in male beagle dogs; type: in vivo
# Method: Another study was conducted to evaluate the effects of lower doses (0.1, 0.5, 2.5, 12.5 mg/kg) of Compound A administered to male beagle dogs for 7 days.
# [6] = tested on: serum concentrations of testosterone (T) and luteinizing hormone (LH); assay: Serum LH and testosterone in male dogs dosed for 1, 3 or 7 days; type: in vivo, beagle dogs
# Method: To further characterize reproductive system effects, adult male healthy beagle dogs were administered sterile water (placebo) or Compound A orally by gavage for 1, 3 or 7 days (Day 0=first day of dosing). Serum was collected from blood for determination of serum concentrations of testosterone (T) and luteinizing hormone (LH).
# There were typically one to three spikes of LH and T within the sampling period. In many dogs the LH spikes preceded the T spikes by 20 to 40 minutes.
# In dogs receiving Compound A, serum LH and T concentrations were generally near the lower baseline values at the first time point evaluated (1 hour after the first doses), and then typically declined throughout the 4-hour evaluation. This trend toward decreased LH and T concentrations from 60 to 300 minutes postdose was statistically significant (p<0.0001). LH and T remained at low concentrations for the remainder of the study. […] The decline in LH to very low (mean values of 1.5 to 3.8 ng/ml for Compound A versus 10.2 to 14.8 ng/ml for Controls) concentration was more rapid than that seen with T. In dogs receiving Compound A, serum LH and T concentrations at Day 2 were generally lower than those at Day 0. Serum LH concentrations on Day 6 were similar to those on Day 2, while serum T concentrations on Day 6 were generally lower than those on Day 2. By Days 2 and 6, some LH and many T samples were below the limit of detection despite using sensitive assays.
# [7] = males, all dose groups, 28 days oral
# [8] = 7 days, 0.1, 0.5, 2.5, 12.5 mg/kg
# [9] = 7 days, doses of 2.5 and 12.5 mg/kg
compound,measurement,setting,value
CO/N=C(\CN(C)C(=O)c1cc(Cl)cc(Cl)c1)C(CCN1CCC(N2CCCC(CC(N)=O)C2=O)CC1)c1ccc(Cl)c(Cl)c1 (stereo not shown) [C],reduction of LHRH-stimulated serum testosterone (statistical significance),"serum testosterone; 90 mg/kg, male nude mice",statistically significant (p<0.01) reduction
CN(C/C(=N\O)C(CCN1CCC(N2CCCC(CC(N)=O)C2=O)CC1)c1ccc(Cl)c(Cl)c1)C(=O)c1cc(Cl)cc(Cl)c1 (stereo not shown) [B],reduction of LHRH-stimulated serum testosterone (statistical significance),"serum testosterone; 90 mg/kg, male nude mice",statistically significant (p<0.01) reduction
CNC(=O)CC1CCCN(C2CCN(CCC(/C(CN(C)C(=O)c3cc(Cl)cc(Cl)c3)=N/OC)c3ccc(Cl)c(Cl)c3)CC2)C1=O (stereo not shown) [Compound A],group mean serum androstenedione,"[1]; Day 7, sterile water group 0.37 ng/ml",0.01 ng/mL
same,group mean serum DHEA,"[1]; Day 7, sterile water group 0.88 ng/ml",0.03 ng/mL
same,group mean serum T,"[1]; Day 7, sterile water group 1.5 ng/ml",0.05 ng/mL
same,group mean serum LH,"[1]; Day 7, sterile water group 14.7 ng/ml",2.4 ng/mL
same,serum DHEA group mean and peak mean concentrations versus concurrent controls,[1]; Day 21 (14 days postdose),not significantly different
same,serum LH group mean and peak mean concentrations versus concurrent controls,[1]; Day 21 (14 days postdose),not significantly different
same,serum T group mean and peak mean concentrations versus concurrent controls,[1]; Day 21 (14 days postdose),not significantly different
same,serum androstenedione group mean and peak mean concentrations versus concurrent controls,[1]; Day 21 (14 days postdose),not significantly different
same,mortality,"[1]; twelve dogs in the group, shortly after the sixth dose",one dog died
same,inhibition of serum testosterone,"serum testosterone; 15 mg/kg oral in 20% HPβCD, LHRH i.m. after 1 hour, bled after an additional hour",62%
same,reduction of LHRH-stimulated serum testosterone (statistical significance),"serum testosterone; 90 mg/kg, male nude mice",statistically significant (p<0.01) reduction
same,maximum inhibition of serum testosterone,"serum testosterone; 300 mg/kg oral in 20% HPβCD, LHRH i.m. after 1 hour, bled after an additional hour",83%
same,inhibition of mean tumor volume,[2]; 5 mg/kg twice daily i.p.,41%
same,inhibition of mean tumor volume,[2]; 15 mg/kg twice daily i.p.,69%
same,"organ weights of male and female reproductive tract tissues, lower than concurrent controls","[3]; beagle dogs, oral gavage, 28 daily doses, all dose groups (15, 30, 60 mg/kg)",33-86%
same,appearance of ovaries and uteri,"[3]; females, at least one dog in each dose group, 28 days oral",appeared immature
same,aspermia/hypospermia in the epididymides,"[3]; males, 28 days oral",observed in all dose groups
same,atrophy of epididymides (microscopic grade),[3]; [7],minimal to moderate
same,atrophy of prostate gland (microscopic grade),[3]; [7],mild to moderate
same,atrophy of seminiferous tubules in the testes (microscopic grade),[3]; [7],severe
same,vacuolation of epithelium in the epididymides (grade),"[3]; mid- and high-dose males, 28 days oral",mild
same,tumor growth inhibition,[4],not inhibited
same,histopathologic changes in testes and epididymides,[5]; [8],"degeneration and cellular debris in the seminiferous tubules, interstitial cell vacuolation in the testes, epithelial vacuolation, atrophy, apoptosis, hypospermia, and interstitial edema of the epididymides"
same,histopathologic changes of the prostate gland,[5]; [8],Epithelial apoptosis and atrophy
same,decrease in serum DHEA (dehydroepiandrosterone),[5]; [9],clearly observed
same,decrease in serum LH,[5]; [9],clearly observed
same,decrease in serum T,[5]; [9],clearly observed
same,decrease in serum androstenedione,[5]; [9],clearly observed
same,group mean serum T concentration compared to concurrent controls,"[6]; Day 0, 2 and 6, p≦0.0001",significant lower
same,group mean serum LH concentration compared to concurrent controls,"[6]; Day 0, 2 and 6, p≦0.0005",significant lower
same,pulsatile patterns of serum LH and T,"[6]; male beagle dogs, oral gavage",lacked the normal pulsatile patterns
CNC(=O)C[C@H]1CCCN(C2CCN(CC[C@@H](/C(CN(C)C(=O)c3cc(Cl)cc(Cl)c3)=N/O)c3ccc(Cl)c(Cl)c3)CC2)C1=O [F],reduction of LHRH-stimulated serum testosterone (statistical significance),"serum testosterone; 90 mg/kg, male nude mice",statistically significant (p<0.01) reduction
CNC(=O)CC1CCCN(C2CCN(CCC(/C(CNC(=O)c3cc(Cl)cc(Cl)c3)=N/OC)c3ccc(Cl)c(Cl)c3)CC2)C1=O (stereo not shown) [Compound D],reduction of LHRH-stimulated serum testosterone (statistical significance),"serum testosterone; 90 mg/kg, male nude mice",failed to reach statistical significance
same,reduction of mean serum testosterone,"serum testosterone; 90 mg/kg, male nude mice, LHRH-stimulated",19%
CO/N=C(\CNC(=O)c1cc(Cl)cc(Cl)c1)C(CCN1CCC(N2CCC[C@H](CC(N)=O)C2=O)CC1)c1ccc(Cl)c(Cl)c1 (stereo partly shown) [E],reduction of LHRH-stimulated serum testosterone (statistical significance),"serum testosterone; 90 mg/kg, male nude mice",statistically significant (p<0.01) reduction
